According to patent US20240368163A1, “COMPOUNDS AND METHODS FOR MODULATING SPLICING” (REMIX THERAPEUTICS INC., priority 2021, published 2024):
pIC50: −log10 of the molar value. Read-outs that look alike come from different tables or passages of the source.

How the values were obtained:
Type in all cases: cell-based, human
Target C [1] = test: Splicing RT-qPCR panel, Target C canonical junction (CJ) mRNA; settings: Homo sapiens, RT-qPCR panel, canonical junction mRNA; compound concentration having 50% response in CJ decrease; read-out: Target C IC50 (decrease in CJ mRNA levels)
Outline: (§1)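 Splice switching is measured in A673 or K562 cells after 24 h compound exposure (maximum 10 uM, 3-fold steps). Canonical and alternative junction mRNA levels are quantified by RT-qPCR relative to housekeeper and DMSO.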

HTT = test: Splicing RT-qPCR assay, HTT mRNA canonical junction (CJ) and alternative junction (AJ); settings: Homo sapiens; for AC50: increase in AJ mRNA
Outline: as §1

Target C [2] = test: HiBiT protein abundance assay, Target C; settings: Homo sapiens, K562, 24 h, Table 13A, modified K562 cells
Outline: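 Luminescence from lytic HiBiT detection, taken after 24 h compound exposure at 37 °C, reports tagged protein abundance in knock-in cells seeded at 10000 cells/well. Doses spanned 10 points, 3-fold steps, top 10 μM final. A four-parameter logistic fit gave the 50% abundance concentration (IC50).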

MYB = test: Splicing RT-qPCR assay, MYB mRNA canonical junction (CJ) and alternative junction (AJ); settings: Homo sapiens; for AC50: increase in AJ mRNA
Outline: as §1

[3] = 24 h, A673 or K562 cells, 24 hours treatment, RT-qPCR
[4] = RT-qPCR panel, canonical junction mRNA, compound concentration having 50% response in CJ decrease, read-out: HTT IC50 (decrease in CJ mRNA levels)
[5] = 24 h, decrease in CJ mRNA, A673 or K562 cells, 24 hours treatment, RT-qPCR, read-out: MYB CJ IC50
[6] = RT-qPCR panel, canonical junction mRNA, compound concentration having 50% response in CJ decrease, read-out: MYB IC50 (decrease in CJ mRNA levels)
[7] = 24 h, decrease in CJ mRNA, A673 or K562 cells, 24 hours treatment, RT-qPCR, read-out: HTT CJ IC50

SMILES	pIC50 (Target C [1])	AC50 (HTT; [3])	pIC50 (HTT; [4])	pIC50 (Target C [2])	pIC50 (MYB; [5])	AC50 (MYB; [3])	pIC50 (MYB; [6])	pIC50 (HTT; [7])
CN(c1ccc(-c2cc(F)c(-c3cn[nH]c3)c3cn[nH]c23)nn1)[C@@H]1C[C@H]2CC(F)(F)[C@@H](C1)N2 (stereo in doubt) [Compound 378, 6,6-difluoro-N-{6-[5-fluoro-4-(1H-pyrazol-4-yl)-1H-indazol-7-yl]pyridazin-3-yl}-N-methyl-8-azabicyclo[3.2.1]octan-3-amine]	6.00 to 7.00	< 100 nM	> 7.00	> 7.00	6.00 to 7.00	< 100 nM	6.00 to 7.00	–
CN(c1ccc(-c2ccc(-c3cn[nH]c3)c3ncsc23)nn1)[C@@H]1C[C@H]2CC(F)(F)[C@@H](C1)N2 (stereo in doubt) [Compound 379, 6,6-difluoro-N-methyl-N-{6-[4-(1H-pyrazol-4-yl)-1,3-benzothiazol-7-yl]pyridazin-3-yl}-8-azabicyclo [3.2.1]octan-3-amine]	6.00 to 7.00	< 100 nM	> 7.00	6.00 to 7.00	6.00 to 7.00	100 to 1000 nM	6.00 to 7.00	–
CN(c1ccc(-c2ccc(-c3cn[nH]c3)c3cn[nH]c23)nn1)[C@@H]1C[C@H]2CC[C@@H](C1)N2 [Compound 104]	6.00 to 7.00	1000 to 10000 nM	6.00 to 7.00	6.00 to 7.00	5.00 to 6.00	1000 to 10000 nM	5.00 to 6.00	6.00 to 7.00
CN(c1ccc(-c2ccc(-n3cccn3)c3cn[nH]c23)nn1)[C@@H]1C[C@H]2CC[C@@H](C1)N2 [Compound 105]	> 7.00	100 to 1000 nM	> 7.00	> 7.00	> 7.00	100 to 1000 nM	> 7.00	–
CN(c1ccc(-c2ccc(-c3cn[nH]c3)c3ncsc23)nn1)C1CC(C)(C)NC(C)(C)C1 [Compound 132]	6.00 to 7.00	100 to 1000 nM	6.00 to 7.00	6.00 to 7.00	6.00 to 7.00	1000 to 10000 nM	6.00 to 7.00	6.00 to 7.00
CN(c1ccc(-c2ccc(-c3cn[nH]c3)c3cn[nH]c23)nn1)C1CC(C)(C)NC(C)(C)C1 [Compound 137]	5.00 to 6.00	100 to 1000 nM	6.00 to 7.00	6.00 to 7.00	5.00 to 6.00	1000 to 10000 nM	5.00 to 6.00	6.00 to 7.00
CN(c1ccc(-c2ccc(-c3ccc(=O)n(C)c3)c3scnc23)nn1)C1CC(C)(C)NC(C)(C)C1 [Compound 178]	< 5.00	> 10000 nM	< 5.00	< 5.00	5.00 to 6.00	> 10000 nM	5.00 to 6.00	< 5.00
CC1(C)CC(Oc2ccc(-c3ccc(-c4cn[nH]c4)c4ncsc34)nn2)CCN1 (centres unmarked) [Compound 182]	5.00 to 6.00	1000 to 10000 nM	5.00 to 6.00	6.00 to 7.00	5.00 to 6.00	> 10000 nM	5.00 to 6.00	5.00 to 6.00
c1nc2c(-c3cn[nH]c3)ccc(-c3ccc(OC4CCNCC4)nn3)c2s1 [Compound 183]	6.00 to 7.00	100 to 1000 nM	6.00 to 7.00	> 7.00	6.00 to 7.00	100 to 1000 nM	6.00 to 7.00	6.00 to 7.00
c1nc2c(-c3cn[nH]c3)ccc(-c3ccc(O[C@@H]4C[C@H]5CC[C@@H](C4)N5)nn3)c2s1 [Compound 184]	6.00 to 7.00	< 100 nM	6.00 to 7.00	6.00 to 7.00	6.00 to 7.00	< 100 nM	6.00 to 7.00	6.00 to 7.00
CC1(C)CC(Nc2ccc(-c3ccc(-c4cn[nH]c4)c4ncsc34)nn2)CC(C)(C)N1 [Compound 186]	6.00 to 7.00	< 100 nM	> 7.00	> 7.00	6.00 to 7.00	> 10000 nM	6.00 to 7.00	–
c1nc2c(-c3cn[nH]c3)ccc(-c3ccc(N[C@@H]4C[C@H]5CC[C@@H](C4)N5)nn3)c2s1 [Compound 202]	6.00 to 7.00	< 100 nM	> 7.00	6.00 to 7.00	6.00 to 7.00	100 to 1000 nM	6.00 to 7.00	–
CCN(c1ccc(C2=CC=C(c3cn[nH]c3)C3N=CSC23)nn1)[C@@H]1C[C@H]2CC[C@@H](C1)N2 (some centres unmarked) [Compound 203]	6.00 to 7.00	100 to 1000 nM	6.00 to 7.00	> 7.00	6.00 to 7.00	100 to 1000 nM	6.00 to 7.00	6.00 to 7.00
CN(c1ccc(-c2ccc(-c3cn[nH]c3)c3ncsc23)nn1)[C@H]1C[C@]2(C)CC[C@](C)(C1)N2 [Compound 204]	> 7.00	< 100 nM	> 7.00	> 7.00	> 7.00	100 to 1000 nM	> 7.00	–
[2H]C([2H])([2H])N(c1ccc(-c2ccc(-c3cn[nH]c3)c3ncsc23)nn1)[C@@H]1C[C@H]2CC[C@@H](C1)N2 [Compound 210]	> 7.00	< 100 nM	> 7.00	> 7.00	> 7.00	< 100 nM	> 7.00	–
CN(c1ccc(-c2ccc(-c3cn[nH]c3)c3ncsc23)nn1)[C@@H]1C[C@H]2CC[C@@H](C1)N2 [Compound 213]	> 7.00	< 100 nM	> 7.00	> 7.00	6.00 to 7.00	100 to 1000 nM	6.00 to 7.00	–
c1nc2c(-c3cn[nH]c3)ccc(-c3ccc(N[C@@H]4C[C@H]5CCC[C@@H](C4)N5)nn3)c2s1 [Compound 215]	> 7.00	< 100 nM	> 7.00	> 7.00	6.00 to 7.00	< 100 nM	6.00 to 7.00	–
Fc1cc(-c2ccc(O[C@@H]3C[C@H]4CC[C@@H](C3)N4)nn2)c2[nH]ncc2c1-c1cn[nH]c1 [Compound 216]	6.00 to 7.00	< 100 nM	> 7.00	6.00 to 7.00	6.00 to 7.00	< 100 nM	6.00 to 7.00	–
CN(c1ccc(-c2ccc(-c3cn[nH]c3)c3ncsc23)nn1)[C@@H]1C[C@H]2CCC[C@@H](C1)N2 [Compound 226]	> 7.00	< 100 nM	> 7.00	> 7.00	> 7.00	< 100 nM	> 7.00	–
[2H]C([2H])([2H])N(c1ccc(-c2ccc(-c3cn[nH]c3)c3ncsc23)nn1)[C@@H]1C[C@H]2CCC[C@@H](C1)N2 [Compound 227]	> 7.00	< 100 nM	> 7.00	> 7.00	> 7.00	< 100 nM	> 7.00	–
CCN(c1ccc(-c2ccc(-c3cn[nH]c3)c3ncsc23)nn1)[C@@H]1C[C@H]2CCC[C@@H](C1)N2 [Compound 228]	> 7.00	100 to 1000 nM	> 7.00	> 7.00	6.00 to 7.00	100 to 1000 nM	6.00 to 7.00	–
CN(c1ccc(-c2ccc(-c3cnn(C)c3)c3cn[nH]c23)nn1)C1CCNCC1 [Compound 242]	< 5.00	> 10000 nM	< 5.00	< 5.00	< 5.00	> 10000 nM	< 5.00	< 5.00
CN(c1ccc(-c2cc(F)c(-c3cnn(C)c3)c3cn[nH]c23)nn1)[C@@H]1C[C@H]2CC[C@@H](C1)N2 [Compound 291]	> 7.00	< 100 nM	> 7.00	> 7.00	> 7.00	< 100 nM	> 7.00	–
c1n[nH]cc1-c1ccc(-c2ccc(N[C@@H]3C[C@H]4CCC[C@@H](C3)N4)nn2)c2[nH]ncc12 [Compound 294]	6.00 to 7.00	100 to 1000 nM	6.00 to 7.00	6.00 to 7.00	6.00 to 7.00	100 to 1000 nM	6.00 to 7.00	6.00 to 7.00
CC1(C)CC(Oc2ccc(-c3cc(F)c(-c4cn[nH]c4)c4cn[nH]c34)nn2)CC(C)(C)N1 [Compound 307]	6.00 to 7.00	100 to 1000 nM	6.00 to 7.00	6.00 to 7.00	6.00 to 7.00	1000 to 10000 nM	6.00 to 7.00	6.00 to 7.00
c1nc2c(-c3cn[nH]c3)ccc(-c3ccc(N(C4CC4)C4C[C@H]5CCC[C@@H](C4)N5)nn3)c2s1 (some centres unmarked) [Compound 311]	6.00 to 7.00	< 100 nM	> 7.00	> 7.00	6.00 to 7.00	100 to 1000 nM	6.00 to 7.00	–
Fc1cc(-c2ccc(OC3CC4CC(F)(F)C(C3)N4)nn2)c2[nH]ncc2c1-c1cn[nH]c1 (centres unmarked) [Compound 313, 7-[6-({6,6-difluoro-8-azabicyclo[3.2.1]octan-3-yl}oxy)pyridazin-3-yl]-5-fluoro-4-(1H-pyrazol-4-yl)-1H-indazole]	6.00 to 7.00	100 to 1000 nM	> 7.00	6.00 to 7.00	6.00 to 7.00	100 to 1000 nM	6.00 to 7.00	–
